Data taken from patent publication US20260206761A1, “HETEROARYL-TRIAZOLE COMPOUNDS AS PESTICIDES” (Bayer Aktiengesellschaft, priority 2019, published 2026).

Assays:
Format in all cases: in vivo
[1] = test system: larvae of the banded cucumber beetle (Diabrotica balteata); experiment: Diabrotica balteata spray test; conditions: 168 h, after 7 days, read-out: activity (efficacy: seedlings grown); for pest or weed control at 500 g/ha: application rate 500 g/ha (=160 pg/well); for pest or weed control at 100 g/ha: application rate 100 g/ha (=32 pg/well)
Method: Diabrotica balteata—spray test
(§1) Solvent: 78.0 parts by weight of acetone • • 1.5 parts by weight of dimethylformamide
(§2) Emulsifier: alkylarylpolyglycol ether
(§3) To produce a suitable preparation of active compound, 1 part by weight of active compound is mixed with the stated amount of solvent, and the concentrate is diluted with water, containing an emulsifier concentration of 1000 ppm, to the desired concentration. Further test concentrations are prepared by dilution with emulsifier containing water.
Soaked wheat seeds (Triticum aestivum) are placed in a multiple well plate filled with agar and some water and are incubated for 1 day to germinate (5 seeds per well). The germinated wheat seeds are sprayed with a test solution containing the desired concentration of the active ingredient. Afterwards each unit is infected with 10-20 larvae of the banded cucumber beetle (Diabrotica balteata).
After 7 days efficacy in % is determined. 100% means all the seedlings have grown up like in the untreated, uninfected control; 0% means none of the seedlings have grown.

[2] = test system: adult engorged female ticks (Rhipicephalus microplus); experiment: Rhipicephalus (Boophilus) microplus injection test; conditions: 168 h, egg deposition after 7 days, read-out: activity (efficacy: infertile eggs); for pest or weed control at 0.02 mg: application rate 20 μg/animal; for pest or weed control at 4 pg: application rate 4 pg/animal
Method: Rhipicephalus (Boophilus) microplus—Injection Test
Solvent: dimethyl sulfoxide
To produce a suitable preparation of active compound, 10 mg of active compound are dissolved in 0.5 mL solvent, and the concentrate is diluted with solvent to the desired concentration.
Five adult engorged female ticks (Rhipicephalus microplus) are injected with 1 μL compound solution into the abdomen. The ticks are transferred into replica plates and incubated in a climate chamber.
After 7 days egg deposition of fertile eggs is monitored. Eggs where fertility is not visible are stored in a climate chamber till hatching after about 42 days. An efficacy of 100% means all eggs are infertile; 0% means all eggs are fertile.

[3] = test system: fall armyworm larvae (Spodoptera frugiperda); experiment: Spodoptera frugiperda spray test; conditions: 168 h, read-out: activity (mortality)
Method: Spodoptera frugiperda—Spray Test
Solvent: 78.0 parts by weight acetone • 1.5 parts by weight dimethylformamide
as §2
as §3, with “solvents” for “solvent,”, “and” for “and the concentrate”
Maize (Zea mays) leaf sections are sprayed with a preparation of the active ingredient of the desired concentration. Once dry, the leaf sections are infested with fall armyworm larvae (Spodoptera frugiperda).
After 7 days mortality in % is determined. 100% means all caterpillars have been killed and 0% means none of the caterpillars have been killed.

[4] = test system: Rhipicephalus microplus larvae (strain Parkhurst, resistant against synthetic pyrethroids); experiment: Rhipicephalus (Boophilus) microplus in-vitro contact test, larval cattle tick; conditions: after 48 hours, read-out: activity (efficacy: larvae dead or moribund); for pest or weed control at 100 g/ha: application rate 1 pg/cm^2 (=100 g/ha); for pest or weed control at 500 g/ha: application rate 5 pg/cm^2 (=500 g/ha)
Method: Rhipicephalus (Boophilus) microplus—In-Vitro Contact Tests Larval Cattle Tick (Strain Parkhurst. Resistant Against Synthetic Pyrethroids)
(§4) 9 mg compound is solved in 1 mL acetone and diluted with acetone to the desired concentration. 250 μL of the test solution is filled in 25 mL glass test tubes and homogeneously distributed on the inner walls by rotation and tilting on a shaking device (2 h at 30 rpm). With a compound concentration of 900 ppm, an inner surface of 44.7 cm^2 and a homogeneous distribution, a dose of 5 μg/cm^2 is achieved.
After the solvent has evaporated, each test tube is filled with 20-50 cattle tick larvae (Rhipicephalus microplus), closed with a perforated lid and incubated in a horizontal position at 85% relative humidity and 27° C. in an incubator. After 48 hours efficacy is determined. The larvae are patted on the ground of the tubes and negative geotactic behaviour is recorded.
An efficacy of 100% means all larvae are dead or moribund; 0% means no larvae are dead or moribund.

[5] = test system: adult brown dog ticks (Rhipicephalus sanguineus); experiment: Rhipicephalus sanguineus in-vitro contact test, adult brown dog ticks; conditions: after 48 hours, read-out: activity (efficacy: ticks dead or moribund); for pest or weed control at 100 g/ha: application rate 1 pg/cm^2 (=100 g/ha); for pest or weed control at 5 µg/cm2, 500 g/ha: application rate 5 μg/cm^2 (=500 g/ha)
Method: Rhipicephalus sanguineus—In-Vitro Contact Tests with Adult Brown Dog Ticks
as §4
After the solvent has evaporated, each test tube is filled with 5-10 adult brown dog ticks (Rhipicephalus sanguineus), closed with a perforated lid and incubated in a lying position at room temperature and relative humidity. After 48 hours efficacy is determined. The ticks are patted on the ground of the tubes and are incubated on a heating plate at 45-50° C. for at most 5 minutes. Immotile or uncoordinated moving ticks, which are not able to escape the heat by climbing upwards, are marked as dead or moribund.
An efficacy of 100% means all ticks are dead or moribund; 0% means no ticks are dead or moribund.

[6] = test system: green peach aphid (Myzus persicae); experiment: Myzus persicae oral test; conditions: 120 h, application rate 4 ppm, after 5 days
Method: Solvent: 100 parts by weight acetone
To produce a suitable preparation of active compound, 1 part by weight of active compound is mixed with the stated amount of solvent, and the concentrate is diluted with water to the desired concentration.
50 μL compound solution is filled in microtiter plates and 150 μL IPL41 insect medium (33%+15% sugar) is added to obtain a total volume of 200 μL per well. Afterwards the plates are sealed with parafilm through which a mixed population of the green peach aphid (Myzus persicae) can suck on the compound preparation.
After 5 days mortality in % is determined. 100% means all aphids have been killed and 0% means none of the aphids have been killed.

[7] = test system: larvae of the southern green stink bug (Nezara viridula); experiment: Nezara viridula spray test; conditions: 96 h, after 4 days; for mortality at 500 g/ha: application rate 500 g/ha
Method: Nezara viridula—Spray Test
as §1, §2, §3
Barley plants (Hordeum vulgare) infested with larvae of the southern green stink bug (Nezara viridula) are sprayed with a test solution containing the desired concentration of the active ingredient.
After 4 days mortality in % is determined. 100% means all the stink bugs have been killed; 0% means none of the stink bugs have been killed.

SMILES | mortality at 100 g/ha [3] | pest or weed control at 100 g/ha [4] | pest or weed control at 500 g/ha [4] | pest or weed control at 100 g/ha [1] | other results
CCOc1nc([C@H](C)NC(=O)c2csc(Cl)c2)n(-c2ccc(C#N)cn2)n1 [I-10] | – | – | – | – | pest or weed control at 500 g/ha [1]: 100%; pest or weed control at 0.02 mg [2]: 80%
CC(C)Oc1nc([C@H](C)NC(=O)c2cc(Cl)cc(S(C)(=O)=O)c2)n(-c2ccc(C#N)cn2)n1 [I-11] | 100% | 90% | 80% | – | mortality at 500 g/ha [3]: 83%; pest or weed control at 500 g/ha [1]: 80%; pest or weed control at 4 pg [2]: 100%; pest or weed control at 0.02 mg [2]: 100%
CC(C)Oc1nc([C@H](C)NC(=O)c2csc(Cl)c2)n(-c2ccc(C#N)cn2)n1 [I-12] | – | – | – | – | pest or weed control at 0.02 mg [2]: 80%
CC(C)S(=O)(=O)c1cc(Cl)cc(C(=O)N[C@@H](C)c2nc(C3CC3)nn2-c2ccc(C#N)cn2)c1 [I-14] | – | 100% | 100% | – | pest or weed control at 4 pg [2]: 100%; pest or weed control at 0.02 mg [2]: 100%; pest or weed control at 100 g/ha [5]: 80%; pest or weed control at 5 µg/cm2, 500 g/ha [5]: 80%
C[C@H](NC(=O)c1cc(OC(F)(F)F)cc(C2CC2)c1)c1nc(C2CC2)nn1-c1ccc(C#N)cn1 [I-37] | – | 100% | 100% | 100% | pest or weed control at 4 pg [2]: 100%
C[C@H](NC(=O)c1cc(Cl)cc(S(=O)(=O)C(F)(F)F)c1)c1nc(C2CC2)nn1-c1ccc(C#N)cn1 [I-40] | 100% | 100% | 100% | 100% | pest or weed control at 4 pg [2]: 100%
CC(NC(=O)c1cc(C(F)(F)F)n(C)n1)c1nc(I)nn1-c1ncccn1 (centres unmarked) [I-42] | – | 100% | 100% | 100% | –
COc1nc([C@H](C)NC(=O)c2cc(OC(F)(F)F)cc(C3CC3)c2)n(-c2ccc(Cl)cn2)n1 [I-46] | – | – | – | 100% | –
C[C@H](NC(=O)c1cc(C2CC2)cc(S(C)(=O)=O)c1)c1nc(C2CC2)nn1-c1ccc(C#N)cn1 [I-49] | 100% | 100% | 100% | – | mortality at 4 ppm [6]: 100%
CC(NC(=O)c1cc(Br)cc(C2(C(F)(F)F)CC2)c1)c1nc(Cl)nn1-c1ccc(C#N)cn1 (centres unmarked) [I-50] | – | 80% | 90% | – | –
COc1nc([C@H](C)NC(=O)c2cc(Cl)cc(S(=O)(=O)C(F)F)c2)n(-c2ccc(Cl)cn2)n1 [I-53] | 100% | – | – | 100% | mortality at 4 ppm [6]: 100%
COc1nc([C@H](C)NC(=O)c2cc(Cl)cc(S(=O)(=O)C(F)(F)F)c2)n(-c2ccc(C#N)cn2)n1 [I-54] | 100% | 100% | 100% | – | mortality at 4 ppm [6]: 100%
COc1nc([C@H](C)NC(=O)c2cc(Cl)cc(S(=O)(=O)C(F)F)c2)n(-c2ccc(C#N)cn2)n1 [I-55] | 100% | 100% | 100% | 100% | mortality at 4 ppm [6]: 100%
C[C@H](NC(=O)c1cc(C(F)F)cc(S(C)(=O)=O)c1)c1nc(C2CC2)nn1-c1ccc(Cl)cn1 [I-57] | 100% | 100% | 100% | 100% | mortality at 100 g/ha ([7]; application rate 100 g/ha): 100%; mortality at 500 g/ha [7]: 90%; pest or weed control at 100 g/ha [5]: 100%; pest or weed control at 5 µg/cm2, 500 g/ha [5]: 80%
COc1nc([C@H](C)NC(=O)c2cc(Cl)cc(S(=O)(=O)C3CC3)c2)n(-c2ccc(Cl)cn2)n1 [I-62] | 100% | – | – | 100% | mortality at 4 ppm [6]: 100%
C[C@H](NC(=O)c1cc(C(F)(F)F)cc(S(C)(=O)=O)c1)c1nc(C2CC2)nn1-c1ccc(Cl)cn1 [I-68] | 100% | – | – | 100% | mortality at 4 ppm [6]: 100%
COc1nc([C@H](C)NC(=O)c2cc(Br)cc(C3CC3(F)F)c2)n(-c2ccc(C#N)cn2)n1 (some centres unmarked) [I-72] | 100% | 100% | 90% | – | mortality at 500 g/ha [7]: 90%
COc1nc([C@H](C)NC(=O)c2cc(F)cc(S(C)(=O)=O)c2)n(-c2ccc(C#N)cn2)n1 [I-73] | 100% | – | – | 100% | –
COc1nc([C@H](C)NC(=O)c2cc(Cl)cc(S(C)(=O)=O)c2)n(-c2ncc(Cl)cn2)n1 [I-78] | 100% | – | – | 100% | –
CC(NC(=O)c1cc(OC(F)(F)F)cc(C2CC2)c1)c1nc(Cl)nn1-c1ccc(C#N)cn1 (centres unmarked) [I-85] | – | 90% | 90% | 100% | –
C[C@H](NC(=O)c1cc(OC(F)F)cc(S(=O)(=O)C2CC2)c1)c1nc(C2CC2)nn1-c1ccc(C#N)cn1 [I-86] | 100% | – | – | 100% | mortality at 500 g/ha [7]: 100%
COc1nc([C@H](C)NC(=O)c2cc(Cl)cc(S(=O)(=O)C3CC3)c2)n(-c2ccc(C#N)cn2)n1 [I-87] | 100% | – | – | – | mortality at 500 g/ha [7]: 100%
COc1nc([C@H](C)NC(=O)c2cc(C(F)F)cc(S(C)(=O)=O)c2)n(-c2ccc(C#N)cn2)n1 [I-89] | 100% | – | – | – | mortality at 500 g/ha [7]: 100%
C[C@H](NC(=O)c1cc(OC(F)(F)F)cc(S(=O)(=O)C2CC2)c1)c1nc(C2CC2)nn1-c1ccc(C#N)cn1 [I-90] | 100% | – | – | 100% | mortality at 500 g/ha [7]: 100%
COc1nc([C@H](C)NC(=O)c2cc(OC(F)(F)F)cc(S(=O)(=O)C3CC3)c2)n(-c2ccc(C#N)cn2)n1 [I-92] | 100% | – | – | – | mortality at 500 g/ha [7]: 90%
C[C@H](NC(=O)c1cc(Br)cc(C(C)(C)C)c1)c1nncn1-c1ccc(C#N)cn1 [II-2] | – | – | – | – | mortality at 500 g/ha [3]: 100%; pest or weed control at 500 g/ha [1]: 100%; pest or weed control at 4 pg [2]: 100%; pest or weed control at 0.02 mg [2]: 100%
Cc1nc([C@H](C)NC(=O)c2sccc2C(F)(F)F)n(-c2ccc(C#N)cn2)n1 [II-10] | – | – | 90% | – | –
